Several values for one entry are separate records, joined by “and”; a condition that tells them apart may be missing. Identical values can stand only once.
Columns and labels:
apoTf = biological target: T1, apoTf (Homo sapiens, UniProt P02787); assay: Interaction with (apo)Tf: ligand displacement and binding of the intact complex (UV-vis, fluorescence, ultrafiltration); details: pH 7.40
T1 construct: purchased Sigma-Aldrich T2036
Procedure: Therefore, UV–vis and fluorescence emission spectra of InQ3 were recorded in the presence of increasing amounts of apoTf (Fig. 5a, b). After a short initial phase, the absorbance band of InQ3 is reduced gradually by the addition of the protein, while the development of the new band at lower wavelengths (at ca. 310 nm) refers to the liberation of HQ. Namely, there is a competition for In(III) ion between the ligand and the iron-binding sites of apoTf. Absorbance values depicted at 370 nm and 310 nm (Fig. 5c) saturate roughly to the corresponding values of the free ligand and outline a sigmoidal shape. Fluorescence intensity of the same sample set (Fig. 5b, d) was enhanced and moderately blue shifted (from λmax = 540 nm to 532 nm) until the addition of ca. 0.2 equiv. apoTf. […] Then, by the addition of more apoTf, intensities decreased and λmax shifted further to shorter wavelengths (527 nm). […] Based on this and the results of apoTf quenching (vide supra) protein binding of the non-dissociated complex is presumed. This is further supported by fluorescence lifetime measurements; where new lifetime components τ3 = 4.7 ± 0.2 ns and τ4 = 13.8 ± 0.4 ns appeared for InQ3 in the presence of 0.1 – 0.3 equiv. apoTf (after 1 min waiting time). […] Here, the sigmoid shape of the UV–vis absorbance was seen again (Fig. S5) and the shifted inflection point in comparison to the titration with apoTf underlines the lower In(III) binding capacity of Tf. […]
In the case of InD3, the absorbance bands of the metal complex and apoTf overlap in great extent, however, spectra can be deconvoluted to the spectra of InD3, deferiprone and apoTf (see Fig S6 for details), and molar fractions of the respective species can be calculated (Fig. 6). Ultrafiltration experiments were carried out as well for the InD3 – apoTf system and the non-protein bound LMM fractions were analyzed by UV–vis spectrophotometry (Fig. 6). […] The complex dissociated in line with the addition of apoTf and a practically quantitative displacement of deferiprone seems to take place by the addition of ca. 0.5 equiv. apoTf. […]

HSA = biological target: T2, HSA (Homo sapiens, UniProt P02768); assay: Fluorescence lifetime (TCSPC) of the complexes in the presence of HSA; format: binding; details: additional lifetime component in the presence of HSA (2–10 μM), 10 μM complex, pH 7.40
T2 construct: purchased Sigma-Aldrich A8763
T2 sequence (P02768 25-609): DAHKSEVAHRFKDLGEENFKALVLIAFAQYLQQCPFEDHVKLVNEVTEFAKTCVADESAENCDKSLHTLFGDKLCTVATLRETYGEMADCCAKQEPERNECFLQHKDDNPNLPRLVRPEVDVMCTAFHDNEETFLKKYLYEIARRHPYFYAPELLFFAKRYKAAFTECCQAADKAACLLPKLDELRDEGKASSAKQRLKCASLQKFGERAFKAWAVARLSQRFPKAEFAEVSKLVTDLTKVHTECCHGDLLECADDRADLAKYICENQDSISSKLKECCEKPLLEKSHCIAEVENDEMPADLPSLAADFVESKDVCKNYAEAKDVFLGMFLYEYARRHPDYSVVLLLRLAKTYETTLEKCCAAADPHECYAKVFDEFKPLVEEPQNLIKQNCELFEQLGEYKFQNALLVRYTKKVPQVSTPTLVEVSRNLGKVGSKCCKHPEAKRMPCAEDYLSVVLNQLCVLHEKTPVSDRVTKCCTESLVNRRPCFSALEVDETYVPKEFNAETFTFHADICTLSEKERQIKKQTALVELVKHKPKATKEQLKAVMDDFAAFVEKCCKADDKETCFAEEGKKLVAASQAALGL
Procedure: The fluorescence lifetime of InQ3 was determined in the absence and presence of HSA. […] GaQ3 behaves similarly (Table 2), while lifetimes of InD3 were too short (τ ≤ 0.2 ns) for accurate determination with our instrument. By the addition of HSA to the complex, two additional lifetime components appeared for InQ3: τ3 = 5.7 ± 0.3 ns and τ4 = 13.8 ± 0.6 ns, which correspond to the HSA bound forms. […] The GaQ3 ‒ HSA system could be characterized with similar lifetime parameters (Table 2).
Fluorescence lifetime was measured on the same fluorometer equipped with a DeltaHub time-correlated single photon counting (TCSPC) controller applying NanoLED light sources N-300 (λmax = 300 nm) and N-350 (λmax = 355 nm) (Horiba Jobin Yvon). The background (obtained with blank samples) was subtracted from the decay of the samples. The program DAS6 (version 6.6.; Horiba, Jobin Yvon) was used for the analysis of the experimental fluorescence decays. The fluorescence intensity decay over time is described by a sum of exponentials,1 It=∑i=1nαiexp-t/τi where αi and τi are the normalized amplitude and lifetime of component i respectively. The quality of the fit was judged from a χ^2R value close to 1.0 and a random distribution of weighted residuals.

[1] = Speciation in threefold diluted human blood serum by UV-vis; format: in vitro ADME; details: 10 µM complex
Source text: With this knowledge, samples prepared in blood serum were studied by UV–vis spectrometry to count the significance of HMM and LMM serum components in the speciation of the complexes (Figs. 9 and S8). Unfortunately, fluorescence spectra could not be recorded due to the significant light scattering of the samples. […] UV–vis spectra in Fig. 9 resemble the behaviour observed for the complex – HSA – Tf ternary systems (Fig. S7) with some important differences. […] This refers to the altered coordination sphere of the metal complex. […] Keeping in mind the difficulties of interpretation of UV–vis spectroscopic data obtained in complex matrices, some assumptions can be made relying on the results of binary and ternary systems. Significant Tf binding of In(III) in blood serum is likely, while GaQ3 interacts less with this protein. […] Formation of HQ – Mg(II) complex is not feasible even at physiological Mg(II) ion levels (0.7–1.0 mM) based on the available stability constants. Zn(II) ion forms higher stability complexes with HQ as Mg(II) and could compete for HQ with In(III) or Ga(III) if its total blood plasma concentration (10–28 μM) would be freely available. […]
For (apo)Tf containing samples, complex concentrations were 20 μM and 0–2.5 equiv. protein was added. Reference spectra for the complexes, ligands and protein were recorded as well. […]

T1 sequence (P02787 20-698): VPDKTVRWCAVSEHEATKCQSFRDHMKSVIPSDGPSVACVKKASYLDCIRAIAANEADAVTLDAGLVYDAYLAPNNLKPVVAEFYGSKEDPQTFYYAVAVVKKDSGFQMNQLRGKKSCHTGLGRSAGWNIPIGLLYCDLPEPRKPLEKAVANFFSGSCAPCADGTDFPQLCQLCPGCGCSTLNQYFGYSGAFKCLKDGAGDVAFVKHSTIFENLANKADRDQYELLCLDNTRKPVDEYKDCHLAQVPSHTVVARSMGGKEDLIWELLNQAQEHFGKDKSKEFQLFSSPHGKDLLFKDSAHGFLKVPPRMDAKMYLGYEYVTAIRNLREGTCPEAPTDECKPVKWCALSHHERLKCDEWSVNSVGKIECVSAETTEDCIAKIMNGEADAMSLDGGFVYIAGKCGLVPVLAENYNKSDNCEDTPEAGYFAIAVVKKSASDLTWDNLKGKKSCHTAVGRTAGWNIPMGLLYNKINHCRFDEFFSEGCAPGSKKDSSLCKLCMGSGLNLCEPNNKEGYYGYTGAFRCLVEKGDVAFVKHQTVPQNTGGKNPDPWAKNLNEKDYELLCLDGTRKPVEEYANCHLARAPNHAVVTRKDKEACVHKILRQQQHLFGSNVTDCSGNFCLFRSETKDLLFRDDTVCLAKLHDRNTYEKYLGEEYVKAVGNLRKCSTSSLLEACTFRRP

Row | SMILES | apoTf needed for practically quantitative displacement of the ligand (apoTf; UV–vis deconvolution and ultrafiltration) | τ3 (HSA) | τ4 (HSA) | binding via intermolecular interactions to apoTf (and Tf) (apoTf; UV–vis and fluorescence) | time to reach chemical equilibrium in serum [1]
1 | Cc1c([O-])c(=O)ccn1C.Cc1c([O-])c(=O)ccn1C.Cc1c([O-])c(=O)ccn1C.[In+3] [InD3] | ca. 0.5 equiv. |  |  |  | 
2 | [Ga+3].[O-]c1cccc2cccnc12.[O-]c1cccc2cccnc12.[O-]c1cccc2cccnc12 [GaQ3, Tris(8-Quinolinolato)gallium(III), reference compound] |  | 5.0 ± 0.3 ns | 14.0 ± 0.2 ns | no such binding was observed | ≤ 10 min
3 | [In+3].[O-]c1cccc2cccnc12.[O-]c1cccc2cccnc12.[O-]c1cccc2cccnc12 [InQ3, Tris(8-Quinolinolato)indium(III)] |  | 5.7 ns and 5.7 ± 0.3 ns | 13.8 ns and 13.8 ± 0.6 ns |  | 240 min

From paper PMC8960621, “Solution speciation and human serum protein binding of indium(III) complexes of 8-hydroxyquinoline, deferiprone and maltol” (Journal of Biological Inorganic Chemistry, 2022)
